Assay results taken from paper PMC8805257, “Molecular and functional characterization of a conserved odorant receptor from Aedes albopictus” (Parasites & Vectors, 2022).
pEC50: −log10 of the molar value.

Tests used:
Type in all cases: cell-based
[1] = target: T1, AalbOr11 (odorant receptor 11) (Aedes albopictus, UniProt A0ABM1ZVX3); experiment: two-electrode voltage clamp in Xenopus oocytes co-expressing AalbOr11/AalbOrco, concentration-response
T1 construct: with AalbOrco
T1 sequence (A0ABM1ZVX3 1-420): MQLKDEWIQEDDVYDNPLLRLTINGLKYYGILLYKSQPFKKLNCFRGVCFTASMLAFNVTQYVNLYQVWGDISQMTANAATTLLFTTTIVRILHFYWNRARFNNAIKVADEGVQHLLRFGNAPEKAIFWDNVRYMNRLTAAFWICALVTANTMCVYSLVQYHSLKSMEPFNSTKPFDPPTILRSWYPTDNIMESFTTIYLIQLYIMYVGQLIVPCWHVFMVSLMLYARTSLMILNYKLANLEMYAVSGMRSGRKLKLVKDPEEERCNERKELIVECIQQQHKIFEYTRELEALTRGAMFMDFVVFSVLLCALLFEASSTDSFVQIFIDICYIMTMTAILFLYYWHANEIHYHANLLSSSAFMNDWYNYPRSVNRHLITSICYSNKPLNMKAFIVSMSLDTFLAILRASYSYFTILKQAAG
T1 sequence (W8NXX6 1-479 partner): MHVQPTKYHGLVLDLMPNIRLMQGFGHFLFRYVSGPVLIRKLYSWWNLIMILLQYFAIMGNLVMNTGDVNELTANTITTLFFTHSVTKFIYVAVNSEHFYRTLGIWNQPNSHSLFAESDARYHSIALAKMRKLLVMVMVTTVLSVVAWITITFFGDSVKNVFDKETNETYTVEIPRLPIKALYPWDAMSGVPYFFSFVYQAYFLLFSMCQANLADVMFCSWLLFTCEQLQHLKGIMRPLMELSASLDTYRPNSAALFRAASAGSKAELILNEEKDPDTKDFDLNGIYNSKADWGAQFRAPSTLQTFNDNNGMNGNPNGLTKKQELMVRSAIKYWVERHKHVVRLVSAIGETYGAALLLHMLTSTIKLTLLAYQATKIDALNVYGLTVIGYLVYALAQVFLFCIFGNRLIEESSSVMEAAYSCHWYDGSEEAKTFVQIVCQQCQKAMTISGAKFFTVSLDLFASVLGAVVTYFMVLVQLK

[2] = target: T1, AalbOr11 (odorant receptor 11); experiment: two-electrode voltage clamp in Xenopus oocytes; current […] nA at […]
[3] = target: T1, AalbOr11 (odorant receptor 11); experiment: two-electrode voltage clamp in Xenopus oocytes co-expressing AalbOr11/AalbOrco, concentration-response; remark: listed apart in the source
[4] = target: T1, AalbOr11 (odorant receptor 11); experiment: two-electrode voltage clamp in Xenopus oocytes, screen at […]

CCc1ccccc1C [2-ethyltoluene]
pEC50 [1]: 4.21

CCc1ccccc1O [2-ethylphenol]
two-electrode voltage clamp in Xenopus oocytes; current >300 nA at 10^-4 M [2]: five aromatics 3-methylindole, 2-ethyltoluene, indole, acetophenone, and 2-ethylphenol

Cc1c[nH]c2ccccc12 [3-methylindole]
two-electrode voltage clamp in Xenopus oocytes; current >300 nA at 10^-4 M [2]: five aromatics 3-methylindole, 2-ethyltoluene, indole, acetophenone, and 2-ethylphenol

CC(=O)c1cccs1 [2-acetylthiophene]
two-electrode voltage clamp in Xenopus oocytes co-expressing AalbOr11/AalbOrco, [3]: indole was replaced with 2-acetylthiophene to conduct concentration gradient assay

COC(=O)c1ccccc1C [methyl-2-methylbenzoate]
two-electrode voltage clamp in Xenopus oocytes, screen at 10^-4 M [4]: AalbOr11 was sensitive to human odor, such as indole, 3-methylindole, and methyl-2-methylbenzoate

CC1(C)C(=O)[C@]2(C)CC[C@H]1C2 [(−)-fenchone]
two-electrode voltage clamp in Xenopus oocytes; current >300 nA at 10^-4 M [2]: The seven strong ligands comprised two terpenes (+)-fenchone and (−)-fenchone

CC1(C)C(=O)[C@@]2(C)CC[C@@H]1C2 [(+)-fenchone]
pEC50 [1]: 3.86

C=CCc1ccc(O)c(OC)c1 [eugenol]
two-electrode voltage clamp in Xenopus oocytes, screen at 10^-4 M [4]: except eugenol, which could activate AalbOr11 but could not activate AgOr11

c1ccc2[nH]ccc2c1 [indole]
two-electrode voltage clamp in Xenopus oocytes; current >300 nA at 10^-4 M [2]: five aromatics 3-methylindole, 2-ethyltoluene, indole, acetophenone, and 2-ethylphenol

CC(=O)c1ccccc1 [acetophenone]
two-electrode voltage clamp in Xenopus oocytes; current >300 nA at 10^-4 M [2]: five aromatics 3-methylindole, 2-ethyltoluene, indole, acetophenone, and 2-ethylphenol
